The source of these data is patent publication US9000159B2 (Glenmark Pharmaceuticals, S.A., priority 2009, dated 2015).

What is called inhibition is the drop in the measured response relative to a control, in per cent. For orientation: IC50 means the point on the concentration scale where inhibition reaches its midpoint.

The target in the experiment is T1, Human TRPA1 (Homo sapiens, UniProt O75762).
T1 construct: expressed in transfected cells; host or cells: CHO cells
In words: 45Calcium uptake assay: inhibition of AITC induced cellular uptake of radioactive calcium. The experiment is classed as cell-based. The following applies: AITC (30 μM) induced 45Ca uptake, Human TRPA1 expressing CHO cells; for inhibition at 1 µM: read-out: Percentage inhibition at 1.0 μM; for inhibition at 10 µM: read-out: Percentage inhibition at 10.0 μM; for IC50: read-out: Human IC50 value (range). The source says:
The illustrative examples of the present invention are screened for TRPA1 activity according to a modified procedure described in (a) Tóth, A. et al., Life Sciences, 2003, 73, 487-498. (b) McNamara C, R. et al., Proc. Natl. Acad. Sci. U.S.A., 2007, 104, 13525-13530. The screening of the compounds can be carried out by other methods and procedures known to persons skilled in the art.
Screening for TRPA1 Antagonist Using the ^45Calcium Uptake Assay
The inhibition of TRPA1 receptor activation was measured as inhibition of allyl isothiocyanate (AITC) induced cellular uptake of radioactive calcium. Test compounds were dissolved in DMSO to prepare 10 mM stock solution and then diluted using plain medium with 0.1% BSA and 1.8 mM CaCl2 to get desired concentration. Final concentration of DMSO in the reaction was 0.5% (v/v). Human TRPA1 expressing CHO cells were grown in F-12 DMEM medium with 10% FBS, 1% penicillin-streptomycin solution, 400 μg/ml of G-418. Cells were seeded 24 h prior to the assay in 96 well plates so as to get ˜50,000 cells per well on the day of experiment. Cells were treated with test compounds for 10 min followed by addition of AITC at a final concentration of 30 μM and 5 μCi/ml ^45Ca^+2 for 3 min. Cells were washed and lysed using buffer containing 1% Triton X-100, 0.1% deoxycholate and 0.1% SDS. Radioactivity in the lysate was measured in Packard Top count after addition of liquid scintillant. Concentration response curves were plotted as a % of maximal response obtained in the absence of test antagonist. IC50 value was calculated from concentration response curve by nonlinear regression analysis using GraphPad PRISM software.

T1 sequence (O75762 whole entry): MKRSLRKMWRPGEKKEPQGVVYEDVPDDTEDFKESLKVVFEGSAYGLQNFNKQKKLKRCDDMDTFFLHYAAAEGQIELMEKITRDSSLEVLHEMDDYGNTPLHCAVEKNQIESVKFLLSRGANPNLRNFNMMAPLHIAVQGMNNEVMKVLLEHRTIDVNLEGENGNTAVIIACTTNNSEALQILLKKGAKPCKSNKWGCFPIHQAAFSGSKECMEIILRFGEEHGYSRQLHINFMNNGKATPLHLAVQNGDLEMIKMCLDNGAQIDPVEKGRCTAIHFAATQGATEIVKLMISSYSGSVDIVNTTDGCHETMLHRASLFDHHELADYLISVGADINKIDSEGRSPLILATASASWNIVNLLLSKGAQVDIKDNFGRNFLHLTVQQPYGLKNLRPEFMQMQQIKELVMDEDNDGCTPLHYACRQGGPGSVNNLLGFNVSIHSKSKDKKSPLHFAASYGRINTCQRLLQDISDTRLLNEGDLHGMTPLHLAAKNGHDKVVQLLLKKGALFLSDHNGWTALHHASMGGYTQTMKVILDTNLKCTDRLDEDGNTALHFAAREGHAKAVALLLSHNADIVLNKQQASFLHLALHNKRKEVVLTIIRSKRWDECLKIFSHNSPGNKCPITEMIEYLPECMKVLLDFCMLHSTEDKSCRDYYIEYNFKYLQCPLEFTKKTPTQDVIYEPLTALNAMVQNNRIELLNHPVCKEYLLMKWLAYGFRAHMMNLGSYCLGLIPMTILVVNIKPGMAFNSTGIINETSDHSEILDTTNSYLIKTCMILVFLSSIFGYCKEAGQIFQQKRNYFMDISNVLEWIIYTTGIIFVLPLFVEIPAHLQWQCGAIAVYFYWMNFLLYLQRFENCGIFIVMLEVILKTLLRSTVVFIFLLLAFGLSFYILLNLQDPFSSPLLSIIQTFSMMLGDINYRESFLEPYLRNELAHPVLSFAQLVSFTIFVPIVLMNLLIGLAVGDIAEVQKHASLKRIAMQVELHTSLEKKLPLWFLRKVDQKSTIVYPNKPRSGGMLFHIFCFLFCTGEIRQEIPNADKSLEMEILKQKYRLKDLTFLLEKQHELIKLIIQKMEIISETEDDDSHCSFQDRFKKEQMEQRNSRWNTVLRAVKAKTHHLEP

`Cc1cn(CC(=O)Nc2nc(-c3ccc(C(F)(F)F)c(F)c3)cs2)c2c(=O)n(C)c(=O)n(C)c12` [Example 35, N-{4-[3-Fluoro-4-(trifluoromethyl)phenyl]-1,3-thiazol-2-yl}-2-(1,3,7-trimethyl-2,4-dioxo-1,2,3,4-tetrahydro-5H-pyrrolo[3,2-d]pyrimidin-5-yl)acetamide]: where the note is “1.0 μM test compound”, the inhibition at 1 µM was found to be 64.7%. For the same molecule, the inhibition at 10 µM (10.0 μM test compound) turned out to be 96.8%.
As for `Cn1c(=O)c2c(ccn2CC(=O)Nc2nc(-c3cc(F)c(OCC(F)(F)F)c(Cl)c3)cs2)n(C)c1=O` [Example 16, N-{4-[3-Chloro-5-fluoro-4-(2,2,2-trifluoroethoxy)phenyl]-1,3-thiazol-2-yl}-2-(1,3-dimethyl-2,4-dioxo-1,2,3,4-tetrahydro-5H-pyrrolo[3,2-d]pyrimidin-5-yl)acetamide], the IC50 was less than 50 nM. In addition, the inhibition at 1 µM (1.0 μM test compound) amounted to 95%. In addition, where the note is “10.0 μM test compound”, the inhibition at 10 µM came to 97.1%.
As to `Cn1nc2c(c1CC(=O)Nc1nc(-c3ccc(C(F)(F)F)c(F)c3F)cs1)c(=O)n(C)c(=O)n2C` [Example 62, N-{4-[2,3-difluoro-4-(trifluoromethyl)phenyl]-1,3-thiazol-2-yl}-2-(2,5,7-trimethyl-4,6-dioxo-4,5,6,7-tetrahydro-2H-pyrazolo[3,4-d]pyrimidin-3-yl)acetamide], the IC50 is less than 50 nM. Moreover, for the setting “1.0 μM test compound”, the inhibition at 1 µM was found to be 90.3%. The inhibition at 10 µM (10.0 μM test compound) stood at 95.8%.
Turning to `Cn1c(=O)c2c(ccn2CC(=O)Nc2nc(-c3cc(Cl)c(OCCC(F)(F)F)c(Cl)c3)cs2)n(C)c1=O` [Example 14, N-{4-[3,5-Dichloro-4-(3,3,3-trifluoropropoxy)phenyl]-1,3-thiazol-2-yl}-2-(1,3-dimethyl-2,4-dioxo-1,2,3,4-tetrahydro-5H-pyrrolo[3,2-d]pyrimidin-5-yl)acetamide], the IC50 was less than 50 nM. In addition, the inhibition at 1 µM (1.0 μM test compound) was 92.5%. Also, under “10.0 μM test compound”, the inhibition at 10 µM is 92.5%.
As to `Cn1c(=O)c2c(cnn2CC(=O)Nc2nc(-c3cc(F)c(OC(F)F)c(F)c3)cs2)n(C)c1=O` [Example 72, N-{4-[4-(Difluoromethoxy)-3,5-difluorophenyl]-1,3-thiazol-2-yl}-2-(4,6-dimethyl-5,7-dioxo-4,5,6,7-tetrahydro-1H-pyrazolo[4,3-d]pyrimidin-1-yl)acetamide], the IC50 was more than 100 nM. For the same molecule, the inhibition at 1 µM (1.0 μM test compound) was 85.9%. For the same molecule, the inhibition at 10 µM (10.0 μM test compound) worked out at 97.7%.
In the case of `Cn1nc2c(c1CC(=O)Nc1nc(-c3ccc(Cl)cc3)cs1)c(=O)n(C)c(=O)n2C` [Example 46, N-[4-(4-Chlorophenyl)-1,3-thiazol-2-yl]-2-(2,5,7-trimethyl-4,6-dioxo-4,5,6,7-tetrahydro-2H-pyrazolo[3,4-d]pyrimidin-3-yl)acetamide], the 50% inhibitory concentration (IC50) is more than 100 nM. Besides, the inhibition at 1 µM (1.0 μM test compound) worked out at 89.3%. Also, under “10.0 μM test compound”, the inhibition at 10 µM came out at 96.6%.
In the same order, the values of `Cn1c(=O)c2c(cnn2CC(=O)Nc2nc(-c3cc(F)c(OCC4CCC4)c(F)c3)cs2)n(C)c1=O` [Example 81, N-{4-[4-(Cyclobutylmethoxy)-3,5-difluorophenyl]-1,3-thiazol-2-yl}-2-(4,6-dimethyl-5,7-dioxo-4,5,6,7-tetrahydro-1H-pyrazolo[4,3-d]pyrimidin-1-yl)acetamide] are less than 50 nM, 94% and 100%.
In the case of `Cn1c(=O)c2c(cnn2CC(=O)Nc2nc(-c3ccc(C(F)(F)F)c(F)c3)cs2)n(C)c1=O` [Example 68, 2-(4,6-Dimethyl-5,7-dioxo-4,5,6,7-tetrahydro-1H-pyrazolo[4,3-d]pyrimidin-1-yl)-N-{4-[3-fluoro-4-(trifluoromethyl)phenyl]-1,3-thiazol-2-yl}acetamide], the IC50 was more than 100 nM. For the same molecule, the inhibition at 1 µM (1.0 μM test compound) came to 91.3%. For the same molecule, the inhibition at 10 µM (10.0 μM test compound) came to 99.4%.
In the case of `CC(C)CCOc1c(F)cc(-c2csc(NC(=O)Cn3ccc4c3c(=O)n(C)c(=O)n4C)n2)cc1F` [Example 7, N-{4-[3,5-Difluoro-4-(3-methylbutoxy)phenyl]-1,3-thiazol-2-yl}-2-(1,3-dimethyl-2,4-dioxo-1,2,3,4-tetrahydro-5H-pyrrolo[3,2-d]pyrimidin-5-yl)acetamide], where the note is “1.0 μM test compound”, the inhibition at 1 µM worked out at 35.5%. Further, the inhibition at 10 µM (10.0 μM test compound) amounted to 37.3%.
Consider `Cn1nc2c(c1CC(=O)Nc1nc(-c3ccc(F)cc3F)cs1)c(=O)n(C)c(=O)n2C` [Example 50, N-[4-(2,4-Difluorophenyl)-1,3-thiazol-2-yl]-2-(2,5,7-trimethyl-4,6-dioxo-4,5,6,7-tetrahydro-2H-pyrazolo[3,4-d]pyrimidin-3-yl)acetamide], for which the inhibition at 1 µM (1.0 μM test compound) worked out at 0%. The inhibition at 10 µM (10.0 μM test compound) is 19.8%.
As to `Cn1c(=O)c2c(ccn2CC(=O)Nc2nc(-c3ccc(Cl)c(C(F)(F)F)c3)cs2)n(C)c1=O` [Example 4, 2-(1,3-Dimethyl-2,4-dioxo-1,2,3,4-tetrahydro-5H-pyrrolo[3,2-d]pyrimidin-5-yl)-N-{4-[4-chloro-3-(trifluoromethyl)phenyl]-1,3-thiazol-2-yl}acetamide], under “1.0 μM test compound”, the inhibition at 1 µM amounted to 34.4%. Besides, where the note is “10.0 μM test compound”, the inhibition at 10 µM came out at 89.8%.
Consider “N-{4-[3,5-Dichloro-4-isobutoxyphenyl]-1,3-thiazol-2-yl}-2-(4,6-dimethyl-5,7-dioxo-4,5,6,7-tetrahydro-1H-pyrazolo[4,3-d]pyrimidin-1-yl)acetamide [Example 77]”, for which the half-maximal inhibitory concentration (IC50) was 50 to 100 nM. Moreover, the “Percentage inhibition at 1.0 μM” value (1.0 μM test compound) is 89.48%. The “Percentage inhibition at 10.0 μM” value (10.0 μM test compound) stood at 99.58%.
Turning to `Cn1c(=O)c2c(cnn2CC(=O)Nc2nc(-c3cc(F)c(OCC(C)(C)C)c(F)c3)cs2)n(C)c1=O` [Example 78, N-{4-[4-(2,2-Dimethylpropoxy)-3,5-difluorophenyl]-1,3-thiazol-2-yl}-2-(4,6-dimethyl-5,7-dioxo-4,5,6,7-tetrahydro-1H-pyrazolo[4,3-d]pyrimidin-1-yl)acetamide], the IC50 was less than 50 nM. Besides, under “1.0 μM test compound”, the inhibition at 1 µM came to 100%. The inhibition at 10 µM (10.0 μM test compound) was found to be 99.7%.
`Cn1c(=O)c2c(ccn2CC(=O)Nc2nc(-c3ccc(C(F)(F)F)c(F)c3)cs2)n(C)c1=O` [Example 3, 2-(1,3-Dimethyl-2,4-dioxo-1,2,3,4-tetrahydro-5H-pyrrolo[3,2-d]pyrimidin-5-yl)-N-{4-[3-fluoro-4-(trifluoromethyl)phenyl]-1,3-thiazol-2-yl}acetamide]: the IC50 was less than 50 nM. Also, where the note is “1.0 μM test compound”, the inhibition at 1 µM came to 94.4%. The inhibition at 10 µM (10.0 μM test compound) is 98.8%.
In the same order, the values of `Cn1nc2c(c1CC(=O)Nc1nc(-c3cc(F)c(OC(F)F)c(F)c3)cs1)c(=O)n(C)c(=O)n2C` [Example 64, N-{4-[4-(Difluoromethoxy)-3,5-difluorophenyl]-1,3-thiazol-2-yl}-2-(2,5,7-trimethyl-4,6-dioxo-4,5,6,7-tetrahydro-2H-pyrazolo[3,4-d]pyrimidin-3-yl)acetamide] are less than 50 nM, 97.8% and 98.3%.
Take `Cn1c(=O)c2c(c(Br)cn2CC(=O)Nc2nc(-c3cc(F)c(OCC(C)(C)C)c(F)c3)cs2)n(C)c1=O` [Example 36, 2-(7-Bromo-1,3-dimethyl-2,4-dioxo-1,2,3,4-tetrahydro-5H-pyrrolo[3,2-d]pyrimidin-5-yl)-N-{4-[3,5-difluoro-4-(2,2-dimethylpropoxy)phenyl]-1,3-thiazol-2-yl}acetamide]: the inhibition at 1 µM (1.0 μM test compound) was determined as 35.6%. Further, the inhibition at 10 µM (10.0 μM test compound) was found to be 70.1%.
For `Cc1cc2c(c(=O)n(C)c(=O)n2C)n1CC(=O)Nc1nc(-c2cc(F)c(OCC(F)(F)F)c(F)c2)cs1` [Example 26, N-[4-(3,5-Difluoro-4-(2,2,2-trifluoroethoxy)phenyl)-1,3-thiazol-2-yl]-2-(1,3,6-trimethyl-2,4-dioxo-1,2,3,4-tetrahydro-5H-pyrrolo[3,2-d]pyrimidin-5-yl)acetamide], the IC50 is less than 50 nM. For the same molecule, under “1.0 μM test compound”, the inhibition at 1 µM turned out to be 95.3%. Also, the inhibition at 10 µM (10.0 μM test compound) was 98.3%.
For the molecule `Cc1cn(CC(=O)Nc2nc(-c3cc(F)c(OCC(C)(C)C)c(F)c3)cs2)c2c(=O)n(C)c(=O)n(C)c12` [Example 34, N-{4-[3,5-Difluoro-4-(2,2-dimethylpropoxy)phenyl]-1,3-thiazol-2-yl}-2-(1,3,7-trimethyl-2,4-dioxo-1,2,3,4-tetrahydro-5H-pyrrolo[3,2-d]pyrimidin-5-yl)acetamide], the IC50 is more than 100 nM. Further, the inhibition at 1 µM (1.0 μM test compound) worked out at 88.8%. Further, the inhibition at 10 µM (10.0 μM test compound) is 97%.
